{"source": "patent US12533359B2", "about": "“Method for preventing hair loss” (Icahn School of Medicine at Mount Sinai, priority 2019, dated 2026)", "key": {"[1]": {"test_system": "hair follicle regression (catagen) in back skin", "experiment": "In vivo contraction inhibition (topical application on back skin during catagen)", "parameters": "species or system mice", "details": "1 mM in 20 μl DMSO, topical twice daily P13 to P19, back skin analysed at P20", "source_text": "To determine whether smooth muscle-like contraction is a main function of the DS to propagate hair follicle regression in vivo, the MLCK pathway was blocked by twice-daily topical application of ML7 throughout catagen on the back skin of mice (FIG. 3G). On the contralateral vehicle control side, follicles regressed normally into telogen with the DP niche relocated next to the SC reservoir (FIG. 3H). […] However, in contrast to ablated follicles, the DS as expected surrounds follicles including DP. […] Patches of lateral back skin measuring 1×1 cm of P13 mice (2 patches per mouse) were clipped and then shaved with a razor blade until no external hair shafts within patches remained. Vehicle-only control DMSO or ML7 HCl (Tocris) dissolved in an equal volume of DMSO (1 mM in 20 μl) was pipetted onto hairless patches and locally rubbed into the skin using a glass rod until visibly dry. Topical applications were performed twice daily from P13 to P19, once in the morning and once in the evening separated by 12 hours. Pieces of back skins including treated areas were then harvested at P20 for downstream analysis."}, "[2]": {"test_system": "microdissected hair follicles (dermal sheath contraction)", "experiment": "Ex vivo hair follicle contraction assay (live imaging of microdissected follicles, high K+ depolarization)", "type": "cell-based, mouse", "details": "preincubation with 200 μM ML7 HCl for 1 hour, follicles from P8 back skin, hydrochloride", "description": "Whether DS cells can functionally contract in a smooth muscle-like fashion through Ca2+-dependent MLCK activation was then explored. Isolated, short-term cultured DS cells were membrane depolarized by an extracellular K+ spike to activate voltage-gated Ca2+ channels in the presence of Fluo8 fluorescent Ca2+ indicator. The switch from high Na+ to high K+ media led to effective Ca2+ influx within 1.5 minutes (FIG. 3A). […] Next, whether the DS can functionally contract and compress intact hair follicles isolated by microdissection (FIG. 3C) was tested.\nHair follicles were microdissected from P8 back skin under a Leica S6E stereomicroscope in PBS and collected in 24-well plates. Media was then changed to Krebs buffer+glucose with or without 200 μM ML7 HCl (Tocris) and incubated for 1 hour at 37° C. Single follicles were then transferred to a 6 cm petri dishes immersed in Krebs buffer+glucose and immobilized by embedding the hair shaft tips in a 5×5 mm piece of parafilm. Follicles were then imaged under brightfield illumination on a Leica inverted DM6000 microscope in an enclosed live cell chamber at 37° C. with 5% CO2. Images were taken with a 10× air lens with time intervals of 10 seconds. During imaging, media was exchanged for Krebs buffer+glucose with KCl supplanting NaCl and follicles were refocused when necessary, which took a duration of no more than 10 seconds. […]"}}, "note": "“Also recorded” adds a separate entry of the source.", "data": [{"smiles": "Cl.O=S(=O)(c1cccc2c(I)cccc12)N1CCCNCC1", "note": "[ML7, hexahydro-1-[(5-iodo-1-naphthalenyl)sulfonyl]-1H-1,4-diazepine hydrochloride]", "values": [{"measurement": "DP niche relocation to the stem cells", "setting": "[1]", "value": "the DP remains at the tip of stalled follicles"}, {"measurement": "hair follicle regression into telogen (stalled follicles)", "setting": "[1]; contralateral DMSO vehicle control, hydrochloride", "value": "striking failure of regression with long stalled follicles stranded deep in the dermis; also recorded: blocks hair follicle regression in vivo"}, {"measurement": "reduction of follicle widths in high K+ (follicle contraction)", "setting": "[2]", "value": "effectively blocked"}]}]}
